Reference: PubChem BioAssay AID2060599 (Molecular Pharmacology Branch, DTP, NCI, 2025)
pIC50: −log10 of the molar value.

System: 817829-284-R-J1-PDC complex spheroids, viability
Assay: Anticancer human tumor 817829-284-R-J1-PDC patient-derived colon adenocarcinoma cell line growth inhibition [CLK]
Settings: for pIC50: curve of first compound; for viability, T/C: stronger effect = lower value
Method in brief: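 Patient-derived tumor cells grown as complex spheroids with HUVEC endothelial cells and mesenchymal stem cells, treated with drug combinations. Concentrations descend in half-log steps from near clinical Cmax, or from 10 microM if Cmax unknown.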
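Also: spheroids exposed to the agents for seven days before readout.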

CC(Nc1ccc2c(c1)OCCn1cc(N3C(=O)OCC3C(F)F)nc1-2)C(N)=O (configuration not stated) + CN1CCN(c2cc(C(=O)Nc3cc4cc(-c5cnn(C)c5)ccc4cn3)ccn2)CC1 was tested, and the pIC50 (second compound 0.0316 µM) was 5.49, the pIC50 (second compound 0.1 µM) was > 7.50 and the pIC50 (second compound 0.316 µM) was > 7.50. The pIC50 (second compound 1 µM) was > 7.50, the pIC50 (second compound 3.16 µM) was > 7.50 and the pIC50 (second compound 10 µM) was > 7.50. The viability, T/C (second compound 0.0316 µM, first compound 0.0316 µM) was 53.4%, the viability, T/C (second compound 0.0316 µM, first compound 0.1 µM) was 55.5% and the viability, T/C (second compound 0.0316 µM, first compound 0.316 µM) was 56.8%. The viability, T/C (second compound 0.0316 µM, first compound 1 µM) was 48.1%, the viability, T/C (second compound 0.0316 µM, first compound 3.16 µM) was 51.4% and the viability, T/C (second compound 0.0316 µM, first compound 10 µM) was 22.9%. It also gave a viability, T/C (second compound 0.1 µM, first compound 0.0316 µM) of 20.4%, a viability, T/C (second compound 0.1 µM, first compound 0.1 µM) of 19.2% and a viability, T/C (second compound 0.1 µM, first compound 0.316 µM) of 17%. The viability, T/C (second compound 0.1 µM, first compound 1 µM) was 16.8%, the viability, T/C (second compound 0.1 µM, first compound 3.16 µM) was 14.3% and the viability, T/C (second compound 0.1 µM, first compound 10 µM) was 10.7%. The viability, T/C (second compound 0.316 µM, first compound 0.0316 µM) was 1.57%, the viability, T/C (second compound 0.316 µM, first compound 0.1 µM) was 1.34% and the viability, T/C (second compound 0.316 µM, first compound 0.316 µM) was 0.89%. For the same molecule, the viability, T/C (second compound 0.316 µM, first compound 1 µM) was 0.83%, the viability, T/C (second compound 0.316 µM, first compound 3.16 µM) was 0.72% and the viability, T/C (second compound 0.316 µM, first compound 10 µM) was 0.96%. For the same molecule, the viability, T/C (second compound 1 µM, first compound 0.0316 µM) was 0.08%, the viability, T/C (second compound 1 µM, first compound 0.1 µM) was 0.11% and the viability, T/C (second compound 1 µM, first compound 0.316 µM) was 0.12%. For the same molecule, the viability, T/C (second compound 1 µM, first compound 1 µM) was 0.07%, the viability, T/C (second compound 1 µM, first compound 3.16 µM) was 0.09% and the viability, T/C (second compound 1 µM, first compound 10 µM) was 0.11%. The viability, T/C (second compound 3.16 µM, first compound 0.0316 µM) was 0.12%, the viability, T/C (second compound 3.16 µM, first compound 0.1 µM) was 0.15% and the viability, T/C (second compound 3.16 µM, first compound 0.316 µM) was 0.15%. For the same molecule, the viability, T/C (second compound 3.16 µM, first compound 1 µM) was 0.15%, the viability, T/C (second compound 3.16 µM, first compound 3.16 µM) was 0.17% and the viability, T/C (second compound 3.16 µM, first compound 10 µM) was 0.14%. For the same molecule, the viability, T/C (second compound 10 µM, first compound 0.0316 µM) was 0.07%, the viability, T/C (second compound 10 µM, first compound 0.1 µM) was 0.08% and the viability, T/C (second compound 10 µM, first compound 0.316 µM) was 0.13%. It also gave a viability, T/C (second compound 10 µM, first compound 1 µM) of 0.11%, a viability, T/C (second compound 10 µM, first compound 3.16 µM) of 0.24% and a viability, T/C (second compound 10 µM, first compound 10 µM) of 0.14%.
